The results in this text go back to US20230355498A1, “HAIR GROWTH AGENT” (ADJUVANT HOLDINGS CO., LTD., priority 2020, published 2023).

In test [1] the test system is skin samples derived from mouse dorsal body hair skin (C57BL/6N) grafted onto Balb/c nu/nu mice. As to the kind of experiment: Hair growth activity: hair shaft length follow-up at transplanted skin samples after topical application. The test is classed as in vivo. The procedure: C57BL/6N mice (male) and Balb/c nu/nu mice (female) were purchased from Japan SLC, Inc.(Japan) and bred, and were thereafter made available for the following testing. Note that the testing and breeding of animals complied with pertinent laws, regulations, ordinances, and guidelines, and was performed with the approval of the Experimental Ethics Review Board of the Institute of Physical and Chemical Research.
The following reagents were respectively prepared. • Placebo: 60% aqueous ethanol solution • Working Example 1: 0.05% solution of palmitoyl • dipeptide-5 diaminohydroxybutyrate (3) Preparation of Skin Samples Derived from Mouse Dorsal Body Hair Skin
To collect dorsal body hair skin in the form of anagen stage VI skin 12 to 14 days following depilation, C57BL/6N mice of age 7 to 8 weeks were depilated at locations where dorsal body hair skin was intended to be collected, and were bred for 12 to 14 days. The depilated C57BL/6N mice were thereafter euthanized by cervical dislocation, following which a suitable amount of dorsal body hair skin was collected from the locations at which dorsal body hair skin was intended to be collected.
The collected skin was immersed in DMEM culture medium (hereinafter “DMEM 10”) which contained 10 mM HEPES, 10% fetal bovine serum, and 1% penicillin/streptomycin solution. The collected dorsal body hair skin was grasped with bent-nose curved tweezers and was treated by immersion for 10 seconds in a sterilizing solution. Sterilization treatment was performed by carrying out treatment with 7% povidone iodine solution two times, treatment with PBS (-) three times, and treatment with DMEM 10 two times, in this order, with fresh solutions respectively being used each time. Following sterilization treatment, these were immersed in clean DMEM 10.
Following sterilization treatment, the dorsal body hair skin was cut into pieces and formed into blocks. The transparent connective tissue which adhered to the cutaneous muscle layer of the skin was excised therefrom using curved scissors, and hair groups were cut into rectangular strips in parallel fashion with respect to the direction of the wave of the hair. At this time, these were cut into blocks such that there were 6 rows of hair follicles along the long axis, adjustment having been carried out so that there were 5 rows of hair follicles along the short axis.
The skin samples derived from dorsal body hair skin that were prepared in accordance with the foregoing were grafted onto Balb/c nu/nu mice of age 4 to 6 weeks.
More specifically, mice were anesthetized in the usual way using isoflurane gas. The dorsal area of the mice was then disinfected using 7% povidone iodine solution, following which the mice were made to assume a naturally recumbent posture. In addition, a Mani ophthalmic knife (Mani, Inc.; Japan) was used to pierce the skin at the dorsal area of the mice, the grafts which were formed extending from the epidermal layer of the skin to the subdermal layer. The skin samples derived from dorsal body hair skin were inserted into the grafts formed thereat in such fashion as to cause the hair groups to be directed toward the body surface side of the grafts. Skin sample transplanted depth was adjusted so as to cause the top portion of the hair group to be in a state such that it was exposed at the top portion of the graft. To protect the grafts, Nurseban (registered trademark) (Sunplanet Co., Ltd.; Japan) and surgical tape (3M Japan Limited; Japan) were then used as protective tape to cover the grafts at which the skin samples derived from dorsal body hair skin had been transplanted. The protective tape was removed 5 to 7 days following transplantation, and survival of the transplanted skin samples derived from dorsal body hair skin was determined by visual inspection or digital microscopy (Keyence Corporation: Japan), after which follow-up observation was carried out.
For the first hair cycle, 60% aqueous ethanol solution was applied thereto as placebo. […]

The subject of test [2] is hair shafts from skin samples transplanted in Balb/c nu/nu mice. Put plainly: Hair-diameter-increasing activity: hair shaft diameter of zigzag hairs that completed the second cycle. The test is classed as in vivo, mouse. How it is done: Measurement of increase in hair diameter was carried out using hair shafts that had completed the second cycle at the foregoing Exemplary Test 1. Of the hair shafts that were collected, three zigzag hairs were used for measurement of increase in hair diameter. Three locations were selected in regions where diameter was large in the central portions thereof using a square 100 μm on a side. For each of the selected regions, five different locations were further selected, and hair shaft diameter of the zigzag hairs thereat was measured to evaluate the degree to which increase in hair diameter had occurred.

A further test relates to FGF-7 gene. As to the kind of experiment: FGF-7 gene expression in human dermal papilla cells (real-time PCR, GAPDH internal standard). As to conditions: 24 hours, FIG. 4. The test is classed as cell-based. How it is done:
Testing and evaluation were carried out with maintenance and culture of human dermal papilla cells being performed in the same manner as at Exemplary Test 3, above.
As drugs for testing, drug solutions of the following respective concentrations (final concentrations) were prepared and used. • Comparative Example 1: 100 μM adenosine • Working Example 1: 1 μM palmitoyl dipeptide-5 diaminohydroxybutyrate • Working Example 2: 10 μM palmitoyl dipeptide-5 diaminohydroxybutyrate • Working Example 3: 300 μM palmitoyl dipeptide-5 diaminohydroxybutyrate
A 24-well plate was seeded with human dermal papilla cells so as to obtain 6×10^3 thereof per well. […]
Following culture, total RNA was extracted from the respective wells and was recovered, and this was reverse-transcribed into cDNA. […] The GAPDH gene was used as an internal standard, the amount of FGF-7 gene expression being calculated relative to the negative control group.
A FastGene RNA Basic Kit (Catalog No. FG-80250; Nippon Genetics Co., Ltd. (Japan)) was used to recover total RNA from cells. […] Concentration of the recovered RNA was measured using a NanoDrop Lite (Catalog No. ND-LITE; Thermo Fisher Scientific K.K.), and this was stored at −80° C. until the following cDNA creation procedure.
A FastGene scriptase II cDNA synthesis 5× Ready Mix (Catalog No. NE-LS641; Nippon Genetics Co., Ltd. (Japan)) was used to synthesize cDNA. […]
(In qPCR the cycle at which signal appears reflects the starting amount.)

Test [3] relates to human dermal papilla cells. Put plainly: Dermal papilla cell growth promotion (Cell Count Reagent SF, absorbance 450 nm). The test is classed as cell-based. To be noted: FIG. 3. How it is done: Human dermal papilla cells (Catalog No. CA602t05a; derived from person; Toyobo Co., Ltd. (Japan)) were purchased, testing and evaluation being carried out with maintenance and culture of cells being performed as described in the protocol.
As drugs for testing, drug solutions consisting of culture medium for human dermal papilla cells containing palmitoyl dipeptide-5 diaminohydroxybutyrate in the following respective concentrations (final concentrations) were prepared, and these were used. • Working Example 1: 11.54709375 μM • Working Example 2: 23.0941875 μM • Working Example 3: 46.188375 μM • Working Example 4: 92.37675 μM • Working Example 5: 184.7535 μM • Working Example 6: 369.507 μM
A 96-well plate was seeded with human dermal papilla cells so as to obtain 1×10^3 thereof per well. […] After this had been added thereto, absorbance (measurement wavelength 450 nm; reference wavelength 620 nm) of the culture supernatant was measured. Based on these values, the cell growth rates at the respective wells were calculated, at which time the cell growth rate of the control group at which nothing had been added was taken to be 100%.

[4] abbreviates: 0.05% solution, second hair cycle vs placebo applied in first hair cycle.
Where [5] appears, read: solution containing 0.05%, applied at transplanted skin samples in mice.

Take “palmitoyl dipeptide-5 diaminohydroxybutyrate”: the “Hair shaft elongation rate (mm/day)” value in test [1] (0.05% solution applied topically, second hair cycle, placebo (first hair cycle) 0.38 ± 0.06) amounted to 0.39 ± 0.06 mm/day. Besides, the “Maximum hair shaft length (mm)” value in test [1] (0.05% solution applied topically, second hair cycle, placebo (first hair cycle) 4.9 ± 0.4, * p<0.05) is on record as 5.2 ± 0.2 * mm. In test [1] (setting [4]), the “Hair shaft elongation rate: Percent change relative to reference data” value is recorded as 100.63% and the “Maximum hair shaft length: Percent change relative to reference data” value amounted to 105.19%. Moreover, the “Hair growth activity (in words)” value in test [1] (solution containing 0.05%) was “exhibit hair growth activity”. For the same substance, in test [1] (setting [5]), the “Hair shaft elongation rate as compared with reference data (in words)” value is on record as “improvement in hair shaft elongation rate” and the “Maximum hair shaft length as compared with reference data (in words)” value was “significant improvement”. Moreover, in test [2] (hair shafts which had completed the second cycle), the “Hair diameter as compared with 60% aqueous ethanol control (in words)” value is reported as “clear increase in hair diameter”. Further, the “Hair shaft diameter: Percent increase (%)” value in test [2] (second hair cycle vs placebo applied in first hair cycle) was found to be 124%. Besides, in test [2] (zigzag hairs, second hair cycle, 0.05% solution, placebo (first hair cycle) 18.5 ± 3.1, ** p<0.01), the “Hair shaft diameter (μm)” value is recorded as 22.9 ± 2.5 ** μm. The “Amount of expression of the FGF-7 gene as compared with control group at which nothing had been added” value in the test on FGF-7 gene (1 μM and 10 μM (Working Examples 1 and 2)) is reported as “increase in the amount of expression of the FGF-7 gene”. Also, the “Amount of expression of the FGF-7 gene compared with 100 μM adenosine (Comparative Example 1)” value with FGF-7 gene (increasing the amount added) is “greater than that which was produced as a result of action of adenosine”. Moreover, the “Cell growth rate as compared with control group at which nothing had been added (control = 100%)” value in test [3] (11.54709375 to 369.507 μM (Working Examples 1 to 6), 24, 48 or 72 hours) was “increase in cell growth rate”. In addition, the “Concentration dependence of cell growth” value in test [3] (11.54709375 to 369.507 μM, peak at concentration of Working Example 5 (184.7535 μM)) is “induced cell growth in concentration-dependent fashion”.
